From patent US8188059B2, “Compounds and methods for modulating expression of GCGR” (Isis Pharmaceuticals, Inc., priority 2006, dated 2012)
Strand notation (5' to 3'): a small letter for the sugar, then the base; units joined by * are phosphorothioate-linked, units joined directly phosphodiester-linked; [ ] holds rarer units or linkages, { } end groups; capitals alone tell only the bases. e = 2'-O-(2-methoxyethyl) (MOE); [5mC] = 5-methylcytosine; d = 2'-deoxy (DNA)

System: PCSK9 mRNA
Assay type: cell-based, human
Details: Hep3B cells, 100 nM, relative to untreated control cells; for % Inhib (PCSK9 mRNA): 0 = no reduction observed
Protocol: When cells reached appropriate confluency, they were treated with oligonucleotide using LIPOFECTIN® as described. […] Cells were treated and data were obtained in duplicate or triplicate. […] Cells were harvested 16-24 hours after oligonucleotide treatment.
Short antisense compounds targeted to a PCSK9 nucleic acid were tested for their effects on PCSK9 mRNA in vitro. The Isis No, gapmer motif and SEQ ID NO of each short antisense compound are shown again in Table 75. Cultured Hep3B cells were treated with 100 nM of short antisense compound. 5-10-5 MOE gapmers targeted to a PCSK9 nucleic acid were used as positive controls. After the treatment period, RNA was isolated from the cells and PCSK9 mRNA levels were measured by quantitative real-time PCR, as described herein. PCSK9 mRNA levels were adjusted according to total RNA content as measured by RIBOGREEN®. Results are presented in Table 75 as percent inhibition of PCSK9 (% Inhib), relative to untreated control cells.

| Substance | % Inhibition Range (PCSK9 mRNA) | % Inhib (PCSK9 mRNA) [%] |
| --- | --- | --- |
| 400305 (antisense eG*e[5mC]*d[5mC]*dT*dG*dT*d[5mC]*dT*dG*dT*dG*dG*eA*eA) [compound 400305] | 30-40% | 38 |
| 400304 (antisense eG*eA*dG*dA*dT*dA*d[5mC]*dA*d[5mC]*d[5mC]*dT*d[5mC]*e[5mC]*eA) [compound 400304] | 10-20% | 11 |
| 400370 (antisense eG*e[5mC]*d[5mC]*dG*dG*d[5mC]*dT*d[5mC]*d[5mC]*dG*dG*d[5mC]*eA*eG) [compound 400370] | 10-20% | 13 |
| 400336 (eT*e[5mC]*d[5mC]*dT*d[5mC]*dA*dG*dG*dG*dA*dA*d[5mC]*e[5mC]*eA; antisense) [compound 400336] | – | 4 |
| 400367 (antisense eG*eG*d[5mC]*dT*d[5mC]*d[5mC]*dG*dG*d[5mC]*dA*dG*d[5mC]*eA*eG) [compound 400367] | 10-20% | 12 |
| 400347 (antisense eG*eG*dA*dG*d[5mC]*dA*dG*d[5mC]*dT*d[5mC]*dA*dG*e[5mC]*eA) [compound 400347] | – | 0 |
| 400348 (antisense eT*eG*dG*dA*dG*d[5mC]*dA*dG*d[5mC]*dT*d[5mC]*dA*eG*e[5mC]) [compound 400348] | – | 0 |
| 400316 (eT*eA*dT*dG*dA*dG*dG*dG*dT*dG*d[5mC]*d[5mC]*eG*e[5mC]; antisense) [compound 400316] | – | 8 |
| 400365 (antisense e[5mC]*eT*d[5mC]*d[5mC]*dG*dG*d[5mC]*dA*dG*d[5mC]*dA*dG*eA*eT) [compound 400365] | 20-30% | 25 |
| 400322 (eT*eT*d[5mC]*d[5mC]*dG*dA*dA*dT*dA*dA*dA*d[5mC]*eT*e[5mC]; antisense) [compound 400322] | – | 0 |
| 400366 (antisense eG*e[5mC]*dT*d[5mC]*d[5mC]*dG*dG*d[5mC]*dA*dG*d[5mC]*dA*eG*eA) [compound 400366] | 10-20% | 15 |
| 400349 (antisense e[5mC]*eT*dG*dG*dA*dG*d[5mC]*dA*dG*d[5mC]*dT*d[5mC]*eA*eG) [compound 400349] | 10-20% | 13 |
| 400356 (antisense eT*eA*dG*dA*d[5mC]*dA*d[5mC]*d[5mC]*d[5mC]*dT*d[5mC]*dA*e[5mC]*e[5mC]) [compound 400356] | – | 0 |
| 400363 (antisense e[5mC]*e[5mC]*dG*dG*d[5mC]*dA*dG*d[5mC]*dA*dG*dA*dT*eG*eG) [compound 400363] | – | 8 |
| 400314 (eG*eT*dG*d[5mC]*d[5mC]*d[5mC]*dT*dT*d[5mC]*d[5mC]*d[5mC]*dT*eT*eG; antisense) [compound 400314] | 20-30% | 26 |
| 400297 (antisense eA*eT*dG*dG*dG*dG*d[5mC]*dA*dA*d[5mC]*dT*dT*e[5mC]*eA) [compound 400297] | – | 0 |
| 400298 (antisense e[5mC]*eA*dT*dG*dG*dG*dG*d[5mC]*dA*dA*d[5mC]*dT*eT*e[5mC]) [compound 400298] | – | 0 |
| 400323 (eG*e[5mC]*d[5mC]*dA*dG*dG*dG*dG*d[5mC]*dA*dG*d[5mC]*eA*eG; antisense) [compound 400323] | – | 0 |
| 400341 (eG*e[5mC]*dT*dG*dG*dT*d[5mC]*d[5mC]*dT*d[5mC]*dA*dG*eG*eG; antisense) [compound 400341] | – | 0 |
| 400321 (eT*e[5mC]*d[5mC]*dG*dA*dA*dT*dA*dA*dA*d[5mC]*dT*e[5mC]*e[5mC]; antisense) [compound 400321] | – | 0 |
| 400334 (e[5mC]*eT*d[5mC]*dA*dG*dG*dG*dA*dA*d[5mC]*d[5mC]*dA*eG*eG; antisense) [compound 400334] | – | 0 |
| 400325 (e[5mC]*e[5mC]*d[5mC]*d[5mC]*dA*dA*dA*dG*dT*d[5mC]*d[5mC]*d[5mC]*e[5mC]*eA; antisense) [compound 400325] | – | 4 |
| 400315 (eA*eT*dG*dA*dG*dG*dG*dT*dG*d[5mC]*d[5mC]*dG*e[5mC]*eT; antisense) [compound 400315] | – | 0 |
| 400300 (antisense eG*eG*dG*dA*dT*dG*d[5mC]*dT*d[5mC]*dT*dG*dG*eG*e[5mC]) [compound 400300] | – | 9 |
| 400369 (antisense e[5mC]*e[5mC]*dG*dG*d[5mC]*dT*d[5mC]*d[5mC]*dG*dG*d[5mC]*dA*eG*e[5mC]) [compound 400369] | – | 0 |

| Substance | % Inhibition Range (PCSK9 mRNA) | % Inhib (PCSK9 mRNA) [%] |
| --- | --- | --- |
| 400312 (e[5mC]*eA*dT*d[5mC]*d[5mC]*d[5mC]*dG*dG*d[5mC]*d[5mC]*dG*d[5mC]*eT*eG; antisense) [compound 400312] | 20-30% | 28 |
| 400328 (eA*e[5mC]*dG*dT*dG*dG*dG*d[5mC]*dA*dG*d[5mC]*dA*eG*e[5mC]; antisense) [compound 400328] | 10-20% | 13 |
| 400326 (eT*e[5mC]*d[5mC]*d[5mC]*d[5mC]*dA*dA*dA*dG*dT*d[5mC]*d[5mC]*e[5mC]*e[5mC]; antisense) [compound 400326] | – | 0 |
| 400350 (antisense e[5mC]*e[5mC]*d[5mC]*dT*d[5mC]*dA*d[5mC]*d[5mC]*d[5mC]*d[5mC]*d[5mC]*dA*eA*eA) [compound 400350] | 10-20% | 15 |
| 400320 (e[5mC]*e[5mC]*dG*dA*dA*dT*dA*dA*dA*d[5mC]*dT*d[5mC]*e[5mC]*eA; antisense) [compound 400320] | – | 0 |
| 400319 (e[5mC]*eG*dA*dA*dT*dA*dA*dA*d[5mC]*dT*d[5mC]*d[5mC]*eA*eG; antisense) [compound 400319] | – | 0 |
| 400344 (eG*eG*dG*dT*dG*d[5mC]*dT*dG*dG*dG*dG*dG*eG*e[5mC]; antisense) [compound 400344] | – | 0 |
| 400317 (e[5mC]*eT*dA*dT*dG*dA*dG*dG*dG*dT*dG*d[5mC]*e[5mC]*eG; antisense) [compound 400317] | – | 7 |
| 400359 (antisense e[5mC]*eA*dT*dG*dG*d[5mC]*dA*dG*d[5mC]*dA*dG*dG*eA*eA) [compound 400359] | – | 0 |
| 400333 (eT*e[5mC]*dA*dG*dG*dG*dA*dA*d[5mC]*d[5mC]*dA*dG*eG*e[5mC]; antisense) [compound 400333] | – | 0 |
| 400371 (antisense eA*eG*dT*dT*dA*d[5mC]*dA*dA*dA*dA*dG*d[5mC]*eA*eA) [compound 400371] | – | 0 |
| 400343 (eG*eG*dT*dG*d[5mC]*dT*dG*dG*dG*dG*dG*dG*e[5mC]*eA; antisense) [compound 400343] | – | 0 |
| 400338 (eG*eG*dT*d[5mC]*d[5mC]*dT*d[5mC]*dA*dG*dG*dG*dA*eA*e[5mC]; antisense) [compound 400338] | – | 9 |
| 400318 (e[5mC]*e[5mC]*dT*dA*dT*dG*dA*dG*dG*dG*dT*dG*e[5mC]*e[5mC]; antisense) [compound 400318] | 20-30% | 26 |
| 400332 (e[5mC]*eA*dG*dG*dG*dA*dA*d[5mC]*d[5mC]*dA*dG*dG*e[5mC]*e[5mC]; antisense) [compound 400332] | – | 0 |
| 400311 (eA*eT*d[5mC]*d[5mC]*d[5mC]*dG*dG*d[5mC]*d[5mC]*dG*d[5mC]*dT*eG*eA; antisense) [compound 400311] | 10-20% | 18 |
| 400303 (antisense eA*eG*dA*dT*dA*d[5mC]*dA*d[5mC]*d[5mC]*dT*d[5mC]*d[5mC]*eA*e[5mC]) [compound 400303] | – | 0 |
| 400351 (antisense eA*e[5mC]*d[5mC]*d[5mC]*dT*d[5mC]*dA*d[5mC]*d[5mC]*d[5mC]*d[5mC]*d[5mC]*eA*eA) [compound 400351] | 10-20% | 14 |
| 400360 (antisense eG*e[5mC]*dA*dT*dG*dG*d[5mC]*dA*dG*d[5mC]*dA*dG*eG*eA) [compound 400360] | 30-40% | 38 |
| 400346 (eG*eA*dG*d[5mC]*dA*dG*d[5mC]*dT*d[5mC]*dA*dG*d[5mC]*eA*eG; antisense) [compound 400346] | – | 5 |
| 400364 (antisense eT*e[5mC]*d[5mC]*dG*dG*d[5mC]*dA*dG*d[5mC]*dA*dG*dA*eT*eG) [compound 400364] | – | 0 |
| 400301 (antisense e[5mC]*eG*d[5mC]*dT*d[5mC]*d[5mC]*dA*dG*dG*dT*dT*d[5mC]*e[5mC]*eA) [compound 400301] | 20-30% | 27 |
| 400339 (eT*eG*dG*dT*d[5mC]*d[5mC]*dT*d[5mC]*dA*dG*dG*dG*eA*eA; antisense) [compound 400339] | – | 0 |
| 400357 (antisense eT*eG*dG*d[5mC]*dA*dG*d[5mC]*dA*dG*dG*dA*dA*eG*e[5mC]) [compound 400357] | – | 0 |
